The values below come from publication PMC5062114, “Dual-targeting anti-angiogenic cyclic peptides as potential drug leads for cancer therapy” (Scientific Reports, 2016).

Like-named read-outs stand apart in the source and are kept apart here. Bridge positions count the residues as written; N and C are the ends. Square brackets hold non-standard residues; d marks the D form. Peptide text beside a SMILES is read from it. A value given as a limit tells only on which side of the number the result lay.

One assay has as its system MCF-7. The assay can be described thus: cells. The following applies: read-out: IC50 ± S.D., 48 hours, MCF-7. On the procedure: (§1) HUVECs (human umbilical vein endothelial cells) were cultured in EGM™-2 BulletKit™ supplemented with SingleQuots™ (supplements: growth factors, cytokines, antibiotics; Lonza) and 10% FBS (catalog no. FFBS-500; Scientifix). Both HT-29 and MCF-7 cells were cultured in 10% FBS/DMEM (Dulbecco’s Modified Eagle Medium) with 1% penicillin–streptomycin (5000 U/mL; Life Technologies), whereas PC3 cells (prostate cancer cells) were cultured in 10% FBS/RPMI (Roswell Park Memorial Institute) 1640 with 1% penicillin–streptomycin (5000 U/mL; Life Technologies). All cells were maintained at 37 °C in 5% CO2.
(§2) Cell cytotoxicity and proliferation assays were performed using similar methods to those described by Chan et al.[45]. All cells were maintained using the media conditions described above, and passages two to ten were used for all cell lines. For all cell lines, 5.0 × 10^3 cells/well (100 μL) and 1.5 × 10^3 cells/well (100 μL) were used for cell cytotoxicity and cell proliferation assays, respectively. All peptides (10 μL, at final concentrations ranging from 0.05–100 μM) and drugs, which included cilengitide, octreotide and sunitinib (at final concentrations ranging from 0.00001–100 μM), were used in both assays. Triton X-100 (0.1% (v/v); 10 μL) was used as a positive control. Cells were treated with fresh media the day after plating, before the addition of peptides, followed by a subsequent 2-h and 48-h incubation for cell cytotoxicity and cell proliferation, respectively. After different incubation periods, 3-(4, 5-dimethylthiazolyl-2)-2,5-diphenyltetrazolium bromide (MTT) (10 μL; 5 mg/mL in PBS) was added, and cells were incubated for a further 4 h. The supernatant was then removed and 100 μL DMSO added to solubilize formazan salts. Experiments were performed in triplicate. Cell numbers were recorded at 600 nm. All data represent average mean ± SD.

A further assay deals with HT-29. Nature of the assay: cells. The following applies: read-out: IC50 ± S.D., 48 hours, HT-29. On the procedure:
as §1, §2

A further assay concerns HUVEC. Nature of the assay: cells. The following applies: read-out: IC50 ± S.D., 48 hours, HUVEC. As to the method: as §1, §2
The next assay has as its system PC3. Nature of the assay: cells. The following applies: read-out: IC50 ± S.D., 48 hours, PC3. On the procedure:
as §1, §2

Another assay concerns HUVEC migration. The assay can be described thus: VEGF-mediated HUVEC transwell migration assay. In kind it is cell-based, human. As to the method: Figure 5 Cell migration on VEGF-mediated HUVECs. The percentage of HUVEC migration was analyzed using Prism Version 6 (GraphPad). (A–T) VEGF was used as a positive control with 100% HUVEC migration. All peptides were tested at concentrations ranging from 0.001–50 μM except for cilengitide and octreotide, which were tested in 10-fold dilutions from 10 μM. Peptides were added in the presence of 0.3 nM VEGF (bottom chamber). Data are shown as mean ± SD (n ≥ 3). Data were normalized to the mean VEGF control. P-values are represented as follows: ****p ≤ 0.0001, ***p ≤ 0.001, **p ≤ 0.01, and *p ≤ 0.05.
A cell migration assay was performed as described by Chan et al.[45] HUVECs between passages three and ten were used. Briefly, initial peptide concentrations of 10–500 μM were prepared for all peptides except SFTI-SST-01, MCo-SST-01, SFTI-SST-02, MCo-SST-02, SFTI-PEDF, MCo-PEDF (0.01–500 μM), cilengitide, octreotide, and MCoAA-02 (1 × 10^−7 M–100 μM). To the apical well, 100 μL of 1 × 10^5 cells/well were seeded and 600 μL of medium supplemented with or without 0.3 nM VEGF (Sigma, catalogue no. V7259) was added to the basolateral well. The well containing cells with 0.1% FBS/EGM-2 basal medium was used as a negative control, and the well containing cells with 0.3 nM VEGF was used as a positive control. All peptides were stimulated with 0.3 nM VEGF. Experiments were done in triplicate. […]

The mark [1] stands for this setting: cell proliferation inhibition, MTT, 48-h incubation, 1.5 × 10^3 cells/well, triplicate, mean ± SD.

With `CC[C@H](C)[C@@H]1NC(=O)[C@@H]2CSSC[C@@H]3NC(=O)[C@H](C(C)C)NC(=O)CNC(=O)CNC(=O)[C@H](CC(=O)O)NC(=O)[C@H](CO)NC(=O)CNC(=O)[C@H](CO)NC(=O)CNC(=O)[C@@H]4CSSC[C@H](NC(=O)[C@H](CC(=O)O)NC(=O)[C@H](CO)NC(=O)[C@H](CC(=O)O)NC(=O)[C@H](CCCNC(=N)N)NC(=O)[C@H](CCCNC(=N)N)NC(=O)[C@H](CSSC[C@H](NC1=O)C(=O)N[C@@H](CCCNC(=N)N)C(=O)N[C@@H](Cc1ccc(O)cc1)C(=O)N[C@H](Cc1c[nH]c5ccccc15)C(=O)N[C@@H](CCCCN)C(=O)N[C@@H](C(C)C)C(=O)N4)NC(=O)[C@H](CCCCN)NC(=O)[C@H](CCCCN)NC(=O)[C@H](CC(C)C)NC(=O)[C@H]([C@@H](C)CC)NC(=O)[C@H](CCCCN)NC(=O)[C@@H]1CCCN1C3=O)C(=O)N1CCC[C@H]1C(=O)NCC(=O)N[C@@H](C)C(=O)N2` [MCo-SST-01] (cyclo(ACICRY[dW]KVCGSGSDGGVCPKILKKCRRDSDCPG); disulfide 2-19, 4-26, 10-32 (inferred); ring closure inferred), the IC50 is greater than 100 µM in the assay on MCF-7 (setting [1]); 74.13 ± 0.07 µM in the assay on HT-29 (setting [1]); 17.12 ± 0.05 µM in the assay on HUVEC (setting [1]); 85.44 ± 0.08 µM in the assay on PC3 (setting [1]); 0.005 µM with HUVEC migration (transwell, 0.3 nM VEGF in bottom chamber, normalized to VEGF control = 100% migration, n ≥ 3, read-out: concentration giving 50% inhibition of HUVEC migration).
For `CCN(CC)CCNC(=O)c1c(C)[nH]c(/C=C2\C(=O)Nc3ccc(F)cc32)c1C` [sunitinib, Sunitinib malate, reference compound], the IC50 with MCF-7 (Homo sapiens, MCF7, 48 h) was 17.07 ± 0.11 µM; in the assay on HT-29 (Homo sapiens, HT-29, 48 h), 1.43 ± 0.24 µM; in the assay with HUVEC (Homo sapiens, 48 h), 19.1 ± 0.46 µM; in the assay on PC3 (Homo sapiens, PC-3, 48 h), 16.2 ± 0.26 µM. Moreover, at 10 µM the inhibition in the assay with HUVEC migration (Homo sapiens, HUVEC, 10 μM, 0.3 nM VEGF) was 100%.

The inhibition is the percentage by which the read-out fell short of the control.
